ChEMBL document CHEMBL1138255, “Enantioselective synthesis and vanilloid activity evaluation of 1-beta-(p-methoxycinnamoyl)polygodial, an antinociceptive compound from Drymis winteri barks” (Bioorg Med Chem Lett, 2007)

Columns and labels:
[1] = molecular target: Transient receptor potential cation channel subfamily V member 1 (Homo sapiens) (UniProt Q8NER1); experiment: Activity at human TRPV1 receptor expressed in HEK293 cells assessed as calcium influx relative to ionomycin; type: cell-based
[2] = molecular target: Transient receptor potential cation channel subfamily V member 1 (Homo sapiens) (UniProt Q8NER1); experiment: Activity at human TRPV1 receptor expressed in HEK293 cells assessed as calcium influx in presence of 5-iodo-resiniferatoxin; type: cell-based

Sequence of Transient receptor potential cation channel subfamily V member 1 (Homo sapiens) (Q8NER1 whole entry): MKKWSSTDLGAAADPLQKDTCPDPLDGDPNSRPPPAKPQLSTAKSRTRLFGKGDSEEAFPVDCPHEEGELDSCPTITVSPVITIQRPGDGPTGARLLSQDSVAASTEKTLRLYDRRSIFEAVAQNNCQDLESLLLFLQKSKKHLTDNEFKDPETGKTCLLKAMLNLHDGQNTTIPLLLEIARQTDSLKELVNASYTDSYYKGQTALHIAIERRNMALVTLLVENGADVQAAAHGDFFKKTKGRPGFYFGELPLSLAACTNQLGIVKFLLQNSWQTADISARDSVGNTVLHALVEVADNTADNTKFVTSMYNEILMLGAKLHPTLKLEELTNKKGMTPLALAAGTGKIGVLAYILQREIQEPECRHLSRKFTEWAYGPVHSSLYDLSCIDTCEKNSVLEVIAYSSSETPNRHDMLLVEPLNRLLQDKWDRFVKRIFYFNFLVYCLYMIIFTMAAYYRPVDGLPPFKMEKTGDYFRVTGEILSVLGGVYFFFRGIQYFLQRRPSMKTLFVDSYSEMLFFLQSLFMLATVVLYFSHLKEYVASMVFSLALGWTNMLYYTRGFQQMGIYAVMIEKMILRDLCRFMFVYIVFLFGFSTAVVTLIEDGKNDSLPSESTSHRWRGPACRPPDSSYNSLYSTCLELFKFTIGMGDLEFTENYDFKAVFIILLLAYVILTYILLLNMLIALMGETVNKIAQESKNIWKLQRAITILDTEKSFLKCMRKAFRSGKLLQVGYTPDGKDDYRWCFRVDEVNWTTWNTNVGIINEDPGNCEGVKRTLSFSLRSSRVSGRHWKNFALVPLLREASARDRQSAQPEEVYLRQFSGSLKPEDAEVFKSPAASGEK

Structure (SMILES)	Activity [1] [%]	Activity [2] [%]
CC1(C)CC[C@@H](O)[C@@]2(C)C1CC=C(C=O)[C@@H]2C=O (some centres undefined)	0	–
COc1ccc(/C=C/C(=O)O[C@@H]2CCC(C)(C)C3CC=C(CO)[C@H](CO)[C@]32C)cc1 (some centres undefined)	0	–
COc1ccc(/C=C/C(=O)O[C@@H]2CCC(C)(C)C3CC=C(C=O)[C@H](C=O)[C@]32C)cc1 (some centres undefined)	40.4	22
